# pEC50: −log10 of the molar value.
# Molecular target: T1, cloned human GLP-1 receptor (Homo sapiens, UniProt P43220)
# T1 construct: expressed in transfected cells; host or cells: CHO or HEK-293 cells
# Test: Functional cell-based assay: cAMP functional assay
# Settings: for Emax: 0.5 h, percentage relative to maximal GLP-1-induced cAMP accumulation, na = not active in the assay, read-out: % activation
# Description: Following overnight incubation of cells, media was removed, and compounds (at concentrations ranging from 0.0001 to 100 μM) were added to monolayer cells in Iscove's modified dulbecco's medium (IMDM), 100 μM RO 20-1724 PDE inhibitor, 0.1% BSA, 2% DMSO in a final volume of 100 μL, and incubated for 30 min at 37° C. 95% O2, 5% CO2 in a humidified incubator. cAMP was quantitated using a homogenous time-resolved fluorescence detection system (cAMP dynamic, CIS bio International).
# T1 sequence (P43220 24-463): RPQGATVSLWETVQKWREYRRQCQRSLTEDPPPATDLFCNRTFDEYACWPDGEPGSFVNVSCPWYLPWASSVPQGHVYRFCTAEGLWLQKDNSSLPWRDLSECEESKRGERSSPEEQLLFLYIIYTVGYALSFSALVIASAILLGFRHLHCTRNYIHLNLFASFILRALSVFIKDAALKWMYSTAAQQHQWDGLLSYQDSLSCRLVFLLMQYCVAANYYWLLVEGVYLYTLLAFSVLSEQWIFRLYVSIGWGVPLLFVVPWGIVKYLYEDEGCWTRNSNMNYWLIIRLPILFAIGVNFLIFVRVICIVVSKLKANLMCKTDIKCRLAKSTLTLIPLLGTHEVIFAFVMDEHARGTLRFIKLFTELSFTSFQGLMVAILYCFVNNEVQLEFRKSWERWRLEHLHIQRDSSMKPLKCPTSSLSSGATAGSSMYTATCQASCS
SMILES,pEC50,Emax [%]
"N#Cc1ccc(-c2ccc(C[C@H](NC(=O)[C@@H]3Cc4cc5c(cc4CN3Cc3ccccc3)OC(c3ccc(OCc4ccc(Cl)c(Cl)c4)cc3)C(=O)N5)C(=O)O)cc2)cc1 (stereo partly drawn) [Example 34, (S)-2-({(S)-6-Benzyl-3-[4-(3,4-dichloro-benzyloxy)-phenyl]-2-oxo-2,3,5,6,7,8-hexahydro-1H-4-oxa-1,6-diaza-anthracene-7-carbonyl}-amino)-3-(4′-cyano-biphenyl-4-yl)-propionic acid]",6.80,31
"N#Cc1ccc(-c2ccc(C[C@H](NC(=O)[C@@H]3Cc4cc5c(cc4CN3CCc3ccccc3)OC(c3ccc(OCc4ccc(Cl)c(Cl)c4)cc3)C(=O)N5)C(=O)O)cc2)cc1 (stereo partly drawn) [Example 35, (S)-3-(4′-Cyano-biphenyl-4-yl)-2-({(S)-3-[4-(3,4-dichloro-benzyloxy)-phenyl]-2-oxo-6-phenethyl-2,3,5,6,7,8-hexahydro-1H-4-oxa-1,6-diaza-anthracene-7-carbonyl}-amino)-propionic acid]",5.92,16
"N#Cc1ccc(-c2ccc(C[C@H](NC(=O)[C@@H]3Cc4cc5c(cc4CN3C(=O)c3c(F)cc(F)cc3F)OC(c3ccc(OCc4ccc(Cl)c(Cl)c4)cc3)C(=O)N5)C(=O)O)cc2)cc1 (stereo partly drawn) [Example 36, (S)-3-(4′-Cyano-biphenyl-4-yl)-2-{[(S)-3-[4-(3,4-dichloro-benzyloxy)-phenyl]-2-oxo-6-(2,4,6-trifluoro-benzoyl)-2,3,5,6,7,8-hexahydro-1H-4-oxa-1,6-diaza-anthracene-7-carbonyl]-amino}-propionic acid]",6.18,13
N#Cc1ccc(-c2ccc(C[C@H](NC(=O)[C@@H]3Cc4cc5c(cc4CN3Cc3cccs3)OC(c3ccc(OCc4ccc(Cl)c(Cl)c4)cc3)C(=O)N5)C(=O)O)cc2)cc1 (stereo partly shown) [Example 40],5.92,34

# Other lines, results leading:
pEC50,Emax [%],SMILES
6.31,32,"Cc1ccccc1S(=O)(=O)N1Cc2cc3c(cc2C[C@H]1C(=O)N[C@@H](Cc1ccc(-c2ccc(C#N)cc2)cc1)C(=O)O)NC(=O)C(c1ccc(OCc2ccc(Cl)c(Cl)c2)cc1)O3 (stereo partly drawn) [Example 37, (S)-3-(4′-Cyano-biphenyl-4-yl)-2-{[(S)-3-[4-(3,4-dichloro-benzyloxy)-phenyl]-2-oxo-6-(toluene-2-sulfonyl)-2,3,5,6,7,8-hexahydro-1H-4-oxa-1,6-diaza-anthracene-7-carbonyl]-amino}-propionic acid]"
6.15,32,"Cc1ccccc1CN1Cc2cc3c(cc2C[C@H]1C(=O)N[C@@H](Cc1ccc(-c2ccc(C#N)cc2)cc1)C(=O)O)NC(=O)C(c1ccc(OCc2ccc(Cl)c(Cl)c2)cc1)O3 (stereo partly drawn) [Example 38, (S)-3-(4′-Cyano-biphenyl-4-yl)-2-{[(S)-3-[4-(3,4-dichloro-benzyloxy)-phenyl]-6-(2-methyl-benzyl)-2-oxo-2,3,5,6,7,8-hexahydro-1H-4-oxa-1,6-diaza-anthracene-7-carbonyl]-amino}-propionic acid]"
6.37,42,"N#Cc1ccc(-c2ccc(C[C@H](NC(=O)[C@@H]3Cc4cc5c(cc4CN3Cc3ccccc3F)OC(c3ccc(OCc4ccc(Cl)c(Cl)c4)cc3)C(=O)N5)C(=O)O)cc2)cc1 (stereo partly drawn) [Example 41, (S)-3-(4′-Cyano-biphenyl-4-yl)-2-{[(S)-3-[4-(3,4-dichloro-benzyloxy)-phenyl]-6-(2-fluoro-benzyl)-2-oxo-2,3,5,6,7,8-hexahydro-1H-4-oxa-1,6-diaza-anthracene-7-carbonyl]-amino}-propionic acid]"
6.00,56,"N#Cc1ccc(-c2ccc(C[C@H](NC(=O)[C@@H]3Cc4cc5c(cc4CN3Cc3ccccc3Cl)OC(c3ccc(OCc4ccc(Cl)c(Cl)c4)cc3)C(=O)N5)C(=O)O)cc2)cc1 (stereo partly drawn) [Example 42, (S)-2-({(S)-6-(2-Chloro-benzyl)-3-[4-(3,4-dichloro-benzyloxy)-phenyl]-2-oxo-2,3,5,6,7,8-hexahydro-1H-4-oxa-1,6-diaza-anthracene-7-carbonyl}-amino)-3-(4′-cyano-biphenyl-4-yl)-propionic acid]"

# Source: patent US7906507B2, “Oxadiazoanthracene compounds for the treatment of diabetes” (TransTech Pharma, Inc., priority 2008, dated 2011)
